Source: patent US10226514B2, “Methods and compositions for reducing blood glucose levels” (The Children's Medical Center Corporation, priority 2011, dated 2019)

What was measured:
XBP1s [1] = experiment: XBP1s protein degradation after cycloheximide; assay type: cell-based, mouse; conditions: anisomycin 25 ng/ml two hours, then cycloheximide 10 μg/ml, vs vehicle
Procedure: MEF cells were infected with Ad-XBP1s. After 24 h post-infection, cells were treated with anisomycin at 25 ng/ml or vehicle (DMSO) for 2 h. Translation […] inhibitor cycloheximide (10 μg/ml, Sigma) was added to the medium. Cells were flash frozen in liquid nitrogen at various time points. Protein levels were determined via immunoblotting.

XBP1s [2] = experiment: XBP1s protein levels in Ad-XBP1s-infected MEFs (western blot); assay type: cell-based, mouse
Procedure: MEF cells were from American Type Tissue Collection (ATCC). These cells were grown in Dulbecco's Modified Eagel Medium (DMEM) supplemented with 10% fetal bovine serum (FBS), 10 U/ml penicillin and 1 μg/ml streptomycin at 37° C. and 5% CO2. Fao cells were maintained in RPMI 1640 medium (Invitrogen) supplemented with 10% fetal bovine serum (FBS), 10 U/ml penicillin and 1 μg/ml streptomycin.
Adenovirus expressing XBP1s T48A, XBP1s S61A, XBP1s T48A/S61A and MKK6Glu were produced with ViraPower Adenoviral Expression System (Invitrogen) according to manufacturer's instruction. Briefly, pAD-XBP1s T48A, pAD-XBP1s S61A, pAd-XBP1s T48A/S61A and pAd-MKK6Glu were linearized by restriction endonuclease digestion with PacI and transfected to 293A cells by Lipofectamine. The media was changed with fresh media every other day until the cytopathic effect was observed. When cytopathic effect reached to 80%, cells were collected by centrifugation. The pellet was resuspended in PBS and subjected to freezing and thawing cycles at −80° C. and 37° C. for 4 times. The supernatant containing the virus was prepared by centrifugation at 4,000 rpm for 20 min at room temperature. Ad-XBP s and Ad-Cre were generated as described previously (Ozcan, L., et al. (2009) Cell metabolism 9:35-51). For infection, cells were incubated with adenovirus in reduced volume of medium containing 1% FBS and antibiotics. Cells were gently rocked every 15 min for 1 h to increase efficiency of infection, and then fresh medium were added and cells were incubated for additional 15 h or 23 h.
Cells were lysed in lysis buffer (25 mM Tris-HCl, pH 7.4; 10 mM NaF; 10 mM Na4P207; 2 mM Na3VO4; 1 mM EGTA; 1 mM EDTA; 1% NP-40; 10 μg/ml Leupeptin; 10 μg/ml Aprotinin; 1 mM PMSF and 20 nM Okadaic acid). After 20 min-rotation at 4° C., cell lysates were centrifuged at 13,200 rpm for 20 min at 4° C. Supernatants were collected and protein concentration was quantified by using Protein Assay Kit (Bio-Rad). The concentrations of protein were normalized with lysis buffer to have equivalent amounts of protein and volume. Protein was denatured by boiling at 100° C. for 5 min in Laemmli buffer. The lysates were cooled to room temperature before loading for western blot analysis.
Western blot analysis was performed as previously described (Ozcan, L., et al. (2009) Cell metabolism 9:35-51). Samples from cell lysates or tissue lysates were resolved by SDS-PAGE and then transferred to polyvinylidene fluoride (PVDF) membrane. After 1 h blocking at room temperature using 10% blocking reagent (Roche), membrane was incubated overnight with primary antibody in Tris-buffered saline solution/Tween (TBST) containing 10% blocking reagent at 4° C. After the incubation, membrane was washed three times in TBST and incubated with secondary antibody for 1 h at room temperature. After three-time washing in TBST, membrane was developed using a chemiluminescence assay system (Roche) and exposed to Kodak films. Relative protein levels were quantified by Image J program.

`COc1ccc(C[C@H]2NC[C@H](O)[C@H]2OC(C)=O)cc1` [anisomycin] was tested, and the “degradation rate of XBP1s protein” value (XBP1s [1]) was “No differences in the degradation rate of XBP1s protein”, the XBP1s protein levels (XBP1s [2]; Ad-XBP1s-infected MEFs, increasing doses, two hours) was “robust increase in XBP1s protein levels” and the XBP1s protein levels (XBP1s [2]; Ad-XBP1s-infected MK2−/− cells vs control cells) was “dramatically reduced”. For the same compound, the XBP1s levels (XBP1s [2]; Ad-XBP1s-infected MKK3,6−/− cells) was “no increase in XBP1s levels”, the XBP1s levels (XBP1s [2]; Ad-XBP1s-infected p38α−/− cells) was “lacked the ability to upregulate XBP1s levels” and the XBP1s protein levels (XBP1s [2]; JNK1,2−/− cells) was “significant increase in XBP is protein”. For the same compound, the XBP1s levels (XBP1s [2]; MKK4,7−/− cells) was “dramatically increased XBP1s levels” and the “XBP1s proteins in Ad-LacZ-infected control cells” value (XBP1s [2]; up to 25 ng/ml anisomycin) was “No upregulation of XBP1s proteins”.
